# Experimental data: patent US20050175599A1, “Process for producing substance” (Kyowa Hakko Kogyo Co., Ltd., priority 2001, published 2005)
# Tested on: transformant cell line NS0/LCA-CCR4 producing chimeric anti-CCR4 antibody
# Assay: Batch culture of antibody-producing cells in Q10-containing serum fraction-added medium (Example 4)
# Assay type: cell-based, mouse
# Conditions: 100 μmol/L Q10 (added as SANOMIT), 4th day
# Procedure: The batch culture was performed using transformant cell line NS0/LCA-CCR4 (FERM BP-7964) producing chimeric anti-CCR4 antibody as prepared in Reference Example 1. […]
# The cumulative number of viable cells is shown as the total sum of the viable cell density multiplied by the time as elapsed. In the present Example, as the viable cell density was measured once, the cumulative number of viable cells was calculated by the following equation as a trapezoidal area formed by the change of the cell density with time related to the inoculated cell density and the measured cell density. Cumulative number of viable cells (cells/mL×days)=(inoculated cell density+measured cell density)×time as elapsed÷2
# The specific antibody production rate and the relative specific antibody production rate were calculated respectively by the method described in Example 1.
# (3) Quantitative Determination of an Antibody in a Culture Supernatant by IgG-ELISA
# The concentration of chimeric anti-CCR4 antibody in the culture supernatant was measured as follows. […]
structure (smiles),measurement,setting,value
COC1=C(OC)C(=O)C(C/C=C(\C)CC/C=C(\C)CC/C=C(\C)CC/C=C(\C)CC/C=C(\C)CC/C=C(\C)CC/C=C(\C)CC/C=C(\C)CC/C=C(\C)CCC=C(C)C)=C(C)C1=O [Q10],cumulative number of cells on the completion of culturing,Q10-free culture 1.59×10^6,1.34×10^6 cells/mL×days
same,relative specific antibody production rate,Q10-free culture = 100%,131.9%
